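Five compound concentrations were applied to cells in 96-well plates for 48 hours; endpoints were derived by simple linear interpolation of the resulting dose-response curve. The concentration for 50% growth inhibition is given as GI50. Definition used: TGI = concentration required for complete inhibition of growth.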
Assays:
Assay in all cases: inhibition of tumour cell growth, NCI panel, 48 h
PC-3 prostate = system: PC-3 prostate
NCI-H460 lung = system: NCI-H460 lung
SF-295 CNS = system: SF-295 CNS
TK-10 renal = system: TK-10 renal
HOP-62 NSCLC = system: HOP-62 NSCLC
CCRF-CEM leukemia = system: CCRF-CEM leukemia
SK-MEL-5 melanoma = system: SK-MEL-5 melanoma
A549 NSCLC = system: A549 NSCLC
MOLT-4 leukemia = system: MOLT-4 leukemia
KM12 colon = system: KM12 colon
SK-MEL-28 melanoma = system: SK-MEL-28 melanoma
HCT-116 colon = system: HCT-116 colon
NCI-H23 lung = system: NCI-H23 lung
UO-31 renal = system: UO-31 renal
HT29 colon = system: HT29 colon
UACC-62 melanoma = system: UACC-62 melanoma
SK-MEL-2 melanoma = system: SK-MEL-2 melanoma
IGROV1 ovarian = system: IGROV1 ovarian
COLO 205 colon = system: COLO 205 colon
BT-549 breast = system: BT-549 breast
HCC-2998 colon = system: HCC-2998 colon
SF-268 CNS = system: SF-268 CNS
U251 CNS = system: U251 CNS
NCI-H522 lung = system: NCI-H522 lung
NCI-H226 lung = system: NCI-H226 lung
786-0 renal = system: 786-0 renal
RPMI-8226 leukemia = system: RPMI-8226 leukemia
MALME-3M melanoma = system: MALME-3M melanoma
HS 578T breast = system: HS 578T breast
SNB-75 CNS = system: SNB-75 CNS
MDA-MB-435 = system: MDA-MB-435
NCI/ADR-RES ovarian = system: NCI/ADR-RES ovarian
ACHN renal = system: ACHN renal
UACC-257 melanoma = system: UACC-257 melanoma
SF-539 CNS = system: SF-539 CNS
MCF7 breast = system: MCF7 breast
A498 renal = system: A498 renal
CAKI-1 renal = system: CAKI-1 renal
SN12C renal = system: SN12C renal
OVCAR-8 ovarian = system: OVCAR-8 ovarian
HL-60(TB) leukemia = system: HL-60(TB) leukemia
HOP-92 NSCLC = system: HOP-92 NSCLC
RXF 393 renal = system: RXF 393 renal
K-562 leukemia = system: K-562 leukemia
LOX IMVI melanoma = system: LOX IMVI melanoma
DU-145 prostate = system: DU-145 prostate
SK-OV-3 ovarian = system: SK-OV-3 ovarian
OVCAR-3 ovarian = system: OVCAR-3 ovarian
EKVX NSCLC = system: EKVX NSCLC
OVCAR-4 ovarian = system: OVCAR-4 ovarian
SNB-19 CNS = system: SNB-19 CNS
HCT-15 colon = system: HCT-15 colon
M14 melanoma = system: M14 melanoma
MDA-MB-231 breast = system: MDA-MB-231 breast
OVCAR-5 ovarian = system: OVCAR-5 ovarian
SW-620 colon = system: SW-620 colon
T-47D breast = system: T-47D breast

O=C1/C(=C(/c2ccccc2)N2CCOCC2)Cc2ccccc21
GI50 (PC-3 prostate): 1.64 µM
TGI (PC-3 prostate): 6.15 µM
GI50 (NCI-H460 lung): 4.52 µM
TGI (NCI-H460 lung): 18.6 µM
GI50 (SF-295 CNS): 12.2 µM
TGI (SF-295 CNS): 28 µM
GI50 (TK-10 renal): 1.29 µM
TGI (TK-10 renal): 2.66 µM
GI50 (HOP-62 NSCLC): 12.5 µM
TGI (HOP-62 NSCLC): 27.1 µM
GI50 (CCRF-CEM leukemia): 0.467 µM
TGI (CCRF-CEM leukemia): 2.67 µM
GI50 (SK-MEL-5 melanoma): 2.25 µM
TGI (SK-MEL-5 melanoma): 6.73 µM
GI50 (A549 NSCLC): 2.79 µM
TGI (A549 NSCLC): 8.35 µM
GI50 (MOLT-4 leukemia): > 100 µM
TGI (MOLT-4 leukemia): > 100 µM
GI50 (KM12 colon): 2.22 µM
TGI (KM12 colon): 5.49 µM
GI50 (SK-MEL-28 melanoma): 1.45 µM
TGI (SK-MEL-28 melanoma): 2.85 µM
GI50 (HCT-116 colon): 0.919 µM
TGI (HCT-116 colon): 2.44 µM
GI50 (NCI-H23 lung): 2.64 µM
TGI (NCI-H23 lung): 8.38 µM
GI50 (UO-31 renal): 0.455 µM
TGI (UO-31 renal): 1.08 µM
GI50 (HT29 colon): 1.83 µM
TGI (HT29 colon): 5.28 µM
GI50 (UACC-62 melanoma): 1.79 µM
TGI (UACC-62 melanoma): 4.24 µM
GI50 (SK-MEL-2 melanoma): 2.03 µM
TGI (SK-MEL-2 melanoma): 6.34 µM
GI50 (IGROV1 ovarian): 1.46 µM
TGI (IGROV1 ovarian): 3.61 µM
GI50 (COLO 205 colon): 1.34 µM
TGI (COLO 205 colon): 2.94 µM
GI50 (BT-549 breast): 1.26 µM
TGI (BT-549 breast): 3.2 µM
GI50 (HCC-2998 colon): 2.08 µM
TGI (HCC-2998 colon): 4.26 µM
GI50 (SF-268 CNS): 2.29 µM
TGI (SF-268 CNS): 6.35 µM
GI50 (U251 CNS): 1.65 µM
TGI (U251 CNS): 4.57 µM
GI50 (NCI-H522 lung): 0.492 µM
TGI (NCI-H522 lung): 1.89 µM
GI50 (NCI-H226 lung): 3.39 µM
TGI (NCI-H226 lung): 8.99 µM
GI50 (786-0 renal): 1.98 µM
TGI (786-0 renal): 3.81 µM
GI50 (RPMI-8226 leukemia): 0.522 µM
GI50 (MALME-3M melanoma): 1.28 µM
TGI (MALME-3M melanoma): 3.08 µM
GI50 (HS 578T breast): 2.63 µM
TGI (HS 578T breast): 12.9 µM
GI50 (SNB-75 CNS): 1.48 µM
TGI (SNB-75 CNS): 3.66 µM
GI50 (MDA-MB-435): 2.17 µM
TGI (MDA-MB-435): 6.87 µM
GI50 (NCI/ADR-RES ovarian): 4.68 µM
TGI (NCI/ADR-RES ovarian): 21.4 µM
GI50 (ACHN renal): 1.64 µM
TGI (ACHN renal): 3.69 µM
GI50 (UACC-257 melanoma): 2.21 µM
TGI (UACC-257 melanoma): 6.46 µM
GI50 (SF-539 CNS): 1.9 µM
TGI (SF-539 CNS): 3.91 µM
GI50 (MCF7 breast): 1.54 µM
TGI (MCF7 breast): 7.38 µM
GI50 (A498 renal): 5.19 µM
TGI (A498 renal): 11.4 µM
GI50 (CAKI-1 renal): 0.186 µM
TGI (CAKI-1 renal): 2.08 µM
GI50 (SN12C renal): 2.16 µM
TGI (SN12C renal): 6.33 µM
GI50 (OVCAR-8 ovarian): 3.9 µM
TGI (OVCAR-8 ovarian): 13.7 µM
GI50 (HL-60(TB) leukemia): 0.235 µM
TGI (HL-60(TB) leukemia): 0.485 µM
GI50 (HOP-92 NSCLC): 1.24 µM
TGI (HOP-92 NSCLC): 3.01 µM
GI50 (RXF 393 renal): 0.883 µM
TGI (RXF 393 renal): 2.19 µM
GI50 (K-562 leukemia): 3.42 µM
GI50 (LOX IMVI melanoma): 0.92 µM
TGI (LOX IMVI melanoma): 2.52 µM
GI50 (DU-145 prostate): 0.948 µM
TGI (DU-145 prostate): 2.29 µM
GI50 (SK-OV-3 ovarian): 23.1 µM
TGI (SK-OV-3 ovarian): 72.6 µM
GI50 (OVCAR-3 ovarian): 0.479 µM
TGI (OVCAR-3 ovarian): 1.5 µM
GI50 (EKVX NSCLC): 3.21 µM
TGI (EKVX NSCLC): 13.5 µM
GI50 (OVCAR-4 ovarian): 1.52 µM
TGI (OVCAR-4 ovarian): 3 µM
GI50 (SNB-19 CNS): 10.6 µM
TGI (SNB-19 CNS): 23.8 µM
GI50 (HCT-15 colon): 1.55 µM
TGI (HCT-15 colon): 5.02 µM
GI50 (M14 melanoma): 1.84 µM
TGI (M14 melanoma): 4.67 µM
GI50 (MDA-MB-231 breast): 2.3 µM
TGI (MDA-MB-231 breast): 5.48 µM
GI50 (OVCAR-5 ovarian): 3.26 µM
TGI (OVCAR-5 ovarian): 9.57 µM
GI50 (SW-620 colon): 1.2 µM
TGI (SW-620 colon): 2.65 µM

CC12OC(C(=O)C13CC3)C1C(=O)c3ccc4c(ccc5ccccc54)c3C(=O)C12 (centres undefined)
GI50 (PC-3 prostate): 19 µM
TGI (PC-3 prostate): 80.7 µM
GI50 (NCI-H460 lung): 15.6 µM
TGI (NCI-H460 lung): 55.6 µM
GI50 (TK-10 renal): 37.1 µM
TGI (TK-10 renal): > 100 µM
GI50 (HOP-62 NSCLC): 28.9 µM
TGI (HOP-62 NSCLC): 99.8 µM
GI50 (CCRF-CEM leukemia): 29.5 µM
TGI (CCRF-CEM leukemia): > 100 µM
GI50 (A549 NSCLC): 45 µM
TGI (A549 NSCLC): > 100 µM
GI50 (MOLT-4 leukemia): 28.9 µM
TGI (MOLT-4 leukemia): > 100 µM
GI50 (KM12 colon): 22.9 µM
TGI (KM12 colon): 59.5 µM
GI50 (SK-MEL-28 melanoma): 66.3 µM
TGI (SK-MEL-28 melanoma): > 100 µM
GI50 (HCT-116 colon): 43.7 µM
TGI (HCT-116 colon): > 100 µM
GI50 (NCI-H23 lung): 24.2 µM
TGI (NCI-H23 lung): > 100 µM
GI50 (UO-31 renal): 77.3 µM
TGI (UO-31 renal): > 100 µM
GI50 (HT29 colon): 55.9 µM
TGI (HT29 colon): > 100 µM
GI50 (SK-MEL-2 melanoma): 53.1 µM
TGI (SK-MEL-2 melanoma): > 100 µM
GI50 (IGROV1 ovarian): 28.9 µM
TGI (IGROV1 ovarian): > 100 µM
GI50 (COLO 205 colon): 32.2 µM
TGI (COLO 205 colon): > 100 µM
GI50 (T-47D breast): 25.7 µM
TGI (T-47D breast): 98.9 µM
GI50 (BT-549 breast): 29.6 µM
TGI (BT-549 breast): 55.9 µM
GI50 (HCC-2998 colon): 20.4 µM
TGI (HCC-2998 colon): > 100 µM
GI50 (SF-268 CNS): 26.5 µM
TGI (SF-268 CNS): 86.1 µM
GI50 (NCI-H522 lung): 51.3 µM
TGI (NCI-H522 lung): > 100 µM
GI50 (786-0 renal): 25.3 µM
TGI (786-0 renal): > 100 µM
GI50 (MALME-3M melanoma): 14.2 µM
TGI (MALME-3M melanoma): 56.6 µM
GI50 (HS 578T breast): 42.2 µM
TGI (HS 578T breast): > 100 µM
GI50 (SNB-75 CNS): 51.3 µM
TGI (SNB-75 CNS): > 100 µM
GI50 (MDA-MB-435): 35.2 µM
TGI (MDA-MB-435): > 100 µM
GI50 (NCI/ADR-RES ovarian): 41.2 µM
TGI (NCI/ADR-RES ovarian): > 100 µM
GI50 (UACC-257 melanoma): 33.5 µM
TGI (UACC-257 melanoma): > 100 µM
GI50 (SF-539 CNS): 32.2 µM
TGI (SF-539 CNS): > 100 µM
GI50 (MCF7 breast): 23.1 µM
TGI (MCF7 breast): > 100 µM
GI50 (CAKI-1 renal): 19.7 µM
TGI (CAKI-1 renal): 41.8 µM
GI50 (OVCAR-8 ovarian): 30.4 µM
TGI (OVCAR-8 ovarian): > 100 µM
GI50 (HL-60(TB) leukemia): 33.2 µM
TGI (HL-60(TB) leukemia): > 100 µM
GI50 (HOP-92 NSCLC): 27.5 µM
TGI (HOP-92 NSCLC): > 100 µM
GI50 (RXF 393 renal): 22.5 µM
TGI (RXF 393 renal): 61.8 µM
GI50 (K-562 leukemia): 47.6 µM
TGI (K-562 leukemia): > 100 µM
GI50 (SK-OV-3 ovarian): 76.4 µM
TGI (SK-OV-3 ovarian): > 100 µM
GI50 (EKVX NSCLC): 51.3 µM
TGI (EKVX NSCLC): > 100 µM
GI50 (SNB-19 CNS): 71.8 µM
TGI (SNB-19 CNS): > 100 µM
GI50 (M14 melanoma): 25.2 µM
TGI (M14 melanoma): 95 µM
GI50 (MDA-MB-231 breast): 13 µM
TGI (MDA-MB-231 breast): 77.9 µM
GI50 (OVCAR-5 ovarian): 30.1 µM
TGI (OVCAR-5 ovarian): > 100 µM
